Data set [1] concerns the target BTK (Homo sapiens, UniProt Q06187). Nature of the data set: Detection of BTK degradation in Mino cells. The class given is cell-based. As to conditions: read-out: DC50 values for BTK degradation in Mino cells.
Data set [2] deals with TMD-8 cells. Nature of the data set: TMD-8 cell proliferation inhibitory activity test. The class given is cell-based. As to conditions: Homo sapiens, TMD8, 72 hours, CellTiter-Glo, read-out: IC50 values for inhibiting TMD-8 cell proliferation. On the procedure: TMD-8 is a human lymphoma cell line that expresses BTK protein and is used to evaluate the efficacy of compounds. […] The cells were seeded into a 96-well culture plate (Biosharp, BS-MP-96W) at a density of 3,000 cells per well. […] Following incubation, 50 µL of a detection solution (CellTiter-Glo®, Promega, G7573) was added to each well, and the plate was uniformly mixed for 2 minutes and incubated at room temperature for 10 minutes. The chemiluminescence reading was then measured using a microplate reader (Molecular Devices, SpectraMax Paradigm). The inhibition rate of cell proliferation by the compounds was calculated according to Equation (1), where RLU compound represents the readout from the compound-treated well, RLU control represents the readout from the DMSO vehicle control well, and RLU blank represents the readout from the cell-free well. Data analysis was performed using Graphpad Prism 8.0 software. The concentration-response curve was generated by fitting the data to a four-parameter equation, and the IC50 values for the compound's inhibition of cell proliferation were calculated. Inh% = 100%−(RLUcompound−RLUblank)/(RLUcontrol−RLUblank)*100% [formula] Table 1. IC50 values for inhibiting TMD-8 cell proliferation
A general note: In ATP-based viability assays light output follows the ATP content of the culture.

Data set [3] is described as follows: Pharmacokinetic test in rats. It counts as in vivo. The settings on record: male, SD, rat, plasma, po, i.g. (10 mg/kg).
Description: Experimental objective: In this experiment, a single dose of the test compound was administered to SD rats via intravenous administration and intragastric gavage, and the concentration of the test compound in plasma of the rats was measured to evaluate the pharmacokinetic profile of the test compound in the rats.
Experimental animals: Male SD rats, 200-220 g, 6-8 weeks old, 6 rats/compound, purchased from Chengdu Ddossy Experimental Animals Co., Ltd.
Experimental method: On the day of the experiment, 6 SD rats were randomly grouped according to their body weights. The animals were fasted with water available for 12 to 14 h one day before the administration, and were fed 4 h after the administration.
Sampling: Before and after the administration, 0.06-0.15 mL of blood was taken from the orbits under isoflurane anaesthesia, and placed in an EDTAK2 centrifuge tube. Centrifugation was carried out at 5000 rpm at 4°C for 10 min, and the plasma was collected.
The plasma collection time points for PO groups were 0, 5 min, 15 min, 30 min, 1 h, 2 h, 4 h, 7 h, 24 h, and 48 h.
The plasma collection time points for IV groups were 0, 5 min, 15 min, 30 min, 1 h, 2 h, 4 h, 7 h, and 24 h.
Before analysis and detection, all samples were stored at -60°C. The samples were analysed quantitatively by LC-MS/MS.
Data set [4] is described as follows: Caco2 permeability test. The class given is in vitro ADME. The settings on record: human, Caco-2 monolayer, pH 7.4.
Description: In the experiment, a monolayer of Caco-2 cells was used, and incubated in triplicate in a 96-well Transwell plate. A transport buffer solution (HBSS, 10 mM HEPES, pH 7.4 ± 0.05) containing the compound of the present invention (2 µM) or the control compound digoxin (10 µM), nadolol (2 µM) or metoprolol (2 µM) was added to the administration end hole on the apical side or basal side. A DMSO-containing transport buffer solution was added to the corresponding receiving end hole. After incubation for 2 hours at 37°C ± 1°C, the cell plate was removed, and an appropriate amount of samples was taken from both the apical side and basal side and transferred to a new 96-well plate. Subsequently, acetonitrile containing an internal standard was added to precipitate the protein. The samples were analysed using LC MS/MS, and the concentrations of the compound of the present invention and the control compound were determined. Concentration data were used to calculate apparent permeability coefficients for transport from the apical side to the basal side, and from the basal side to the apical side of the cell monolayer, and thus to calculate the efflux ratio. The integrity of the cell monolayer after 2 hours of incubation was evaluated by leakage of Lucifer Yellow.
The target of data set [5] is BTK L528W (Homo sapiens, UniProt Q06187, L528W).
Where [6] appears, read: Mino cells, 6 hours, automated western blot.
The mark [7] stands for this setting: 5 nM concentration, REC-1 BTK L528W cells, 6 hours.

Where two headings read alike, the source gives them in different places. Bounds are passed on as bounds.

Chain of BTK (Q06187 whole entry): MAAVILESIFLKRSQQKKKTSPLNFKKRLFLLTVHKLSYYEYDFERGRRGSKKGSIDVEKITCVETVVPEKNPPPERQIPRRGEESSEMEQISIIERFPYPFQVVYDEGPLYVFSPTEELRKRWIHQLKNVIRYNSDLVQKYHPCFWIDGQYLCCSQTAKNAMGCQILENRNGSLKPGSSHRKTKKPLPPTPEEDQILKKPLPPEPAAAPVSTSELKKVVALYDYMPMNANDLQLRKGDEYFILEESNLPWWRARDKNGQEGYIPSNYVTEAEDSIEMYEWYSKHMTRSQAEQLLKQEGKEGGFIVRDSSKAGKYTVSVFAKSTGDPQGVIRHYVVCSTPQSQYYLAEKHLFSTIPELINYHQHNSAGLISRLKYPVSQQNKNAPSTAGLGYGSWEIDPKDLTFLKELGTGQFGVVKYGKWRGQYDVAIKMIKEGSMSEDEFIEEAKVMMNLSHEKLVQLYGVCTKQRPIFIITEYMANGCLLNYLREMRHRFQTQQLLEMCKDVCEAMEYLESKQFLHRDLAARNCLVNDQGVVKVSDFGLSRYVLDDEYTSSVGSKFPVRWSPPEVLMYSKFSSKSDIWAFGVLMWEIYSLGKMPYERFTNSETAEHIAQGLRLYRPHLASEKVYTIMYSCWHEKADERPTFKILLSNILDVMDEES
Chain of BTK L528W (Q06187 whole entry L528W): as the sequence (Q06187 whole entry) above, with L528W counted along it

What is called DC50 is the concentration at which degradation of the target reaches its halfway point. As to `CN1CCN([C@@H]2CCCN(c3cnc(C(N)=O)c(Nc4ccc(N5CCC(CN6CCN7c8cc(F)c(C9CCC(=O)NC9=O)cc8CC[C@@H]7C6)C(F)(F)C5)cc4)n3)C2)C1=O` (single isomer, unassigned) [Compound 27], in data set [1] (setting [6]), the DC50 was under 10 nM.
As for `CN1CCN([C@@H]2CCCN(c3cnc(C(N)=O)c(Nc4ccc(N5CCC(CN6CCN7c8cc(F)c(C9CCC(=O)NC9=O)cc8CC[C@@H]7C6)C(F)(F)C5)cc4)n3)C2)C1=O` (single isomer, unassigned) [Compound 28], the DC50 in data set [1] (setting [6]) is under 10 nM.
Same read-out and setting: under `CN1CCN([C@@H]2CCCN(c3cnc(C(N)=O)c(Nc4ccc(N5CCC(CN6CCN7c8cc(F)c(C9CCC(=O)NC9=O)cc8CC[C@H]7C6)C(F)(F)C5)cc4)n3)C2)C1=O` (single isomer, unassigned) [Compound 29] stands under 10 nM.
As for `CN1CCN([C@@H]2CCCN(c3cnc(C(N)=O)c(Nc4ccc(N5CCC(CN6CCN7c8cc(F)c(C9CCC(=O)NC9=O)cc8CC[C@H]7C6)C(F)(F)C5)cc4)n3)C2)C1=O` (single isomer, unassigned) [Compound 30], the DC50 in data set [1] (setting [6]) is under 10 nM.
One may read the bioavailability as dose-corrected exposure relative to a reference, in per cent. High values mean good availability, low ones poor availability. Broadly, the AUC(0-t) is exposure summed from dosing to a finite time, without extrapolation to infinity. The low end stands for less exposure, the high end for more exposure. In general, Papp A→B refers to the apparent permeability from the apical to the basolateral side of a cell layer. A high value points to ready permeation. A word on the Papp B→A: it is the apparent permeability from the basolateral to the apical side of a cell layer. Broadly, the efflux ratio is a quotient of directional permeabilities that is used to spot active efflux. With `CN1CCN([C@@H]2CCCN(c3cnc(C(N)=O)c(Nc4ccc(N5CCC(CN6CCN7c8cc(F)c(C9CCC(=O)NC9=O)cc8CC[C@H]7C6)CC5)cc4)n3)C2)C1=O` (some centres unmarked) [Compound 11], in data set [2], the IC50 is under 20 nM. Also, the DC50 in data set [1] (setting [6]) was under 10 nM. Besides, in data set [3] (Vehicle 1), the bioavailability is over 50% and the AUC(0-t) is over 1000 ng·h/mL. In data set [4], the Papp A→B at 2 h, 2 µM stood at 1.75 ×10⁻⁶ cm/s; the Papp B→A at 2 h, 2 µM turned out to be 3.74 ×10⁻⁶ cm/s; the efflux ratio at 2 h, 2 µM turned out to be 2.14.
For `CN1CCN([C@@H]2CCCN(c3cnc(C(N)=O)c(Nc4ccc(N5CCC(CN6CCN7c8cc(F)c(C9CCC(=O)NC9=O)cc8CC[C@@H]7C6)CC5)cc4)n3)C2)C1=O` (some centres unmarked) [Compound 12], the IC50 in data set [2] was under 20 nM. The DC50 in data set [1] (setting [6]) was under 10 nM. Further, in data set [4], the Papp A→B at 2 h, 2 µM came to 1.18 ×10⁻⁶ cm/s; the Papp B→A at 2 h, 2 µM was 4.71 ×10⁻⁶ cm/s; the efflux ratio at 2 h, 2 µM turned out to be 3.99. Besides, in data set [5] (setting [7]), the “BTK degradation rate %” value is over 90%.
For `CN1CCN([C@@H]2CCCN(c3cnc(C(N)=O)c(Nc4ccc(N5CCC6(CC5)CC(CN5CCN7c8cc(F)c(C9CCC(=O)NC9=O)cc8CC[C@H]7C5)C6)cc4)n3)C2)C1=O` (some centres unmarked) [Compound 14], the DC50 in data set [1] (setting [6]) is under 10 nM. Also, the AUC(0-t) in data set [3] (Vehicle 2) is over 1000 ng·h/mL. Further, in data set [4], the Papp A→B at 2 h, 2 µM is 0.35 ×10⁻⁶ cm/s; the Papp B→A at 2 h, 2 µM turned out to be 0.867 ×10⁻⁶ cm/s; the efflux ratio at 2 h, 2 µM was determined as 2.47.
The corresponding values for `CN1CCN([C@@H]2CCCN(c3cnc(C(N)=O)c(Nc4ccc(N5CCC(CN6CCN7c8cc(F)c(N9CCC(=O)NC9=O)cc8CC[C@@H]7C6)CC5)cc4)n3)C2)C1=O` [Compound 22] are under 10 nM, over 1000 ng·h/mL, 2.38 ×10⁻⁶ cm/s, 4.44 ×10⁻⁶ cm/s and 1.87.
For the compound `CN1CCN([C@@H]2CCCN(c3cnc(C(N)=O)c(Nc4ccc(N5CCC6(CC5)CC(N5CCN7c8cc(F)c(C9CCC(=O)NC9=O)cc8CC[C@H]7C5)C6)cc4)n3)C2)C1=O` (some centres unmarked) [Compound 31], the DC50 in data set [1] (setting [6]) was under 10 nM.
Same read-out and setting: in the case of `CN1CCN([C@@H]2CCCN(c3cnc(C(N)=O)c(Nc4ccc(N5CCC6(CC5)CC(N5CCN7c8cc(F)c(C9CCC(=O)NC9=O)cc8CC[C@@H]7C5)C6)cc4)n3)C2)C1=O` (some centres unmarked) [Compound 32] it was under 10 nM.
For the compound `CN1CCN([C@@H]2CCCN(c3cnc(C(N)=O)c(Nc4ccc(N5CCC6(CC5)CC(N5CCN7c8cc(F)c(C(=O)N[C@H]9CCC(=O)NC9=O)cc8CC[C@H]7C5)C6)cc4)n3)C2)C1=O` [Compound 34], in data set [1], the DC50 was under 10 nM. Also, in data set [5], the “BTK degradation rate %” value was over 90%.
The corresponding values for `CN1CCN([C@@H]2CCCN(c3nnc(C(N)=O)c(Nc4ccc(N5CCC(CN6CCN7c8cc(F)c(C(=O)N[C@H]9CCC(=O)NC9=O)cc8CC[C@@H]7C6)CC5)cc4)n3)C2)C1=O` [Compound 47] are under 10 nM and over 90%.
Turning to `CN1CCN([C@@H]2CCCN(c3cnc(C(N)=O)c(Nc4ccc(N5CCC6(CC5)CC(CN5CCN7c8cc(F)c(C(=O)N[C@H]9CCC(=O)NC9=O)cc8CC[C@@H]7C5)C6)cc4)n3)C2)C1=O` [Compound 50], the DC50 in data set [1] is under 10 nM.
As for `[2H]C([2H])([2H])N1CCN([C@@H]2CCCN(c3nnc(C(N)=O)c(Nc4ccc(N5CCC(CN6CCN7c8cc(F)c(C(=O)N[C@H]9CCC(=O)NC9=O)cc8CC[C@@H]7C6)CC5)cc4)n3)C2)C1=O` [Compound 61], the DC50 in data set [1] is under 10 nM. For the same compound, the “BTK degradation rate %” value in data set [5] is listed as over 90%.
The corresponding values for `[2H]C([2H])([2H])N1CCN([C@@H]2CCCN(c3cnc(C(N)=O)c(Nc4ccc(N5CCC(CN6CCN7c8cc(F)c(N9CCC(=O)NC9=O)cc8CC[C@@H]7C6)CC5)cc4)n3)C2)C1=O` [Compound 66] are under 10 nM and over 80%.
Turning to `[2H]C([2H])([2H])N1CCN([C@@H]2CCCN(c3cnc(C(N)=O)c(Nc4ccc(N5CCC(CN6CCN7c8cc(F)c(C(=O)N[C@H]9CCC(=O)NC9=O)cc8CC[C@H]7C6)CC5)cc4)n3)C2)C1=O` [Compound 67], in data set [1], the DC50 was under 10 nM. Moreover, the “BTK degradation rate %” value in data set [5] is listed as over 90%.
The corresponding values for `[2H]C([2H])([2H])N1CCN([C@@H]2CCCN(c3cnc(C(N)=O)c(Nc4ccc(N5CCC(CN6CCN7c8cc(F)c(C(=O)N[C@H]9CCC(=O)NC9=O)cc8CC[C@@H]7C6)CC5)cc4)n3)C2)C1=O` [Compound 68] are under 10 nM and over 90%.
`CN1CCN([C@@H]2CCCN(c3nnc(C(N)=O)c(Nc4ccc(N5CCC(CN6CCN7c8cc(F)c(C9CCC(=O)NC9=O)cc8CC[C@@H]7C6)CC5)c(F)c4)n3)C2)C1=O` (some centres unmarked) [Compound 77] returned an AUC(0-t) in data set [3] (Vehicle 2) of over 1000 ng·h/mL. Further, in data set [4], the Papp A→B at 2 h, 2 µM turned out to be 0.984 ×10⁻⁶ cm/s; the Papp B→A at 2 h, 2 µM came to 4.89 ×10⁻⁶ cm/s; the efflux ratio at 2 h, 2 µM came out at 4.97. The “BTK degradation rate %” value in data set [5] (setting [7]) was over 90%.
In the case of `COCCN1CCN([C@@H]2CCCN(c3nnc(C(N)=O)c(Nc4ccc(N5CCC(CN6CCN7c8cc(F)c(C9CCC(=O)NC9=O)cc8CC[C@H]7C6)CC5)cc4)n3)C2)C1=O` (some centres unmarked) [Compound 82], in data set [5] (setting [7]), the “BTK degradation rate %” value was over 85%.
On the same count and under the same terms, in the case of `COCCN1CCN([C@@H]2CCCN(c3nnc(C(N)=O)c(Nc4ccc(N5CCC(CN6CCN7c8cc(F)c(C9CCC(=O)NC9=O)cc8CC[C@H]7C6)CC5)c(F)c4)n3)C2)C1=O` (some centres unmarked) [Compound 83] it was over 85%; in that of `COCCN1CCN([C@@H]2CCCN(c3cnc(C(N)=O)c(Nc4ccc(N5CCC(CN6CCN7c8cc(F)c(C9CCC(=O)NC9=O)cc8CC[C@H]7C6)CC5)cc4)n3)C2)C1=O` (some centres unmarked) [Compound 84], over 70%; in that of `NC(=O)c1nnc(N2CCC[C@@H](N3CCN(C4CC4)C3=O)C2)nc1Nc1ccc(N2CCC(CN3CCN4c5cc(F)c(C6CCC(=O)NC6=O)cc5CC[C@H]4C3)CC2)cc1` (some centres unmarked) [Compound 89], over 80%.
Regarding `CN1CCN([C@@H]2CCCN(c3cnc(C(N)=O)c(Nc4ccc(C5CCN(CC6CCN(c7ccc(C(=O)N[C@H]8CCC(=O)NC8=O)nc7)CC6)CC5)cc4)n3)C2)C1=O` [Control compound 1, reference compound], in data set [4], the Papp A→B at 2 h, 2 µM amounted to 0.101 ×10⁻⁶ cm/s; the Papp B→A at 2 h, 2 µM came out at 5.27 ×10⁻⁶ cm/s; the efflux ratio at 2 h, 2 µM was determined as 52.5.
Regarding `CN1CCN([C@@H]2CCCN(c3cnc(C(N)=O)c(Nc4ccc(N5CCC(N6CCN7c8cc(F)c(C(=O)N[C@H]9CCC(=O)NC9=O)cc8CC[C@H]7C6)CC5)cc4)n3)C2)C1=O` [Trifluoroacetate of compound 36], in data set [1], the DC50 is under 10 nM.
As to `NC(=O)c1nnc(N2CCC[C@@H](N3CCN(CC4CC4)C3=O)C2)nc1Nc1ccc(N2CCC(CN3CCN4c5cc(F)c(C6CCC(=O)NC6=O)cc5CC[C@H]4C3)CC2)cc1` (some centres unmarked) [Trifluoroacetate of compound 93], the “BTK degradation rate %” value in data set [5] (setting [7]) is over 70%.

The values above are taken from patent EP4755887A1, “POLYCYCLIC FUSED-RING BTK DEGRADATION AGENT AND USE THEREOF IN MEDICINE” (Haisco Pharmaceutical Group Co., Ltd., priority 2023, dated 2025).
